Reference: paper PMC6193938, “Characterization of a novel AICARFT inhibitor which potently elevates ZMP and has anti-tumor activity in murine models” (Scientific Reports, 2018)
Where two headings read alike, the source gives them in different places.

What was measured:
ALK4 = molecular target: T1, ALK4 (Homo sapiens, UniProt P36896); assay: CEREP protein kinase assay; format: biochemical
T1 construct: purchased CEREP Panlabs (Eurofins)
T1 sequence (P36896 24-505): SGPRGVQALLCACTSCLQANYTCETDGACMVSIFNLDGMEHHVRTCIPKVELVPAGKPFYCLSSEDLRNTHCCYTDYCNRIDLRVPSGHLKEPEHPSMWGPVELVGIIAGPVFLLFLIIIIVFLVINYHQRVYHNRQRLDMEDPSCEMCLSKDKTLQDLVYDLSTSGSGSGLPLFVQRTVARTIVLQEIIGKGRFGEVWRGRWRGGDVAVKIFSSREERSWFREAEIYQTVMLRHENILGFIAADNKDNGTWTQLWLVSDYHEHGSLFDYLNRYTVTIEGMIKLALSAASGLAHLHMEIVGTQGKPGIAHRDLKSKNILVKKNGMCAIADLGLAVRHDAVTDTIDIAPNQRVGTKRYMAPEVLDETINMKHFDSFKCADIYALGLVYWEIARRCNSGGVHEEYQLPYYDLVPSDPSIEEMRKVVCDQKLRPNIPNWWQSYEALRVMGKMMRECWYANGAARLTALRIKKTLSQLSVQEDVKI

IRK = molecular target: T2, IRK (Homo sapiens, UniProt P06213); assay: CEREP protein kinase assay; format: biochemical
T2 construct: purchased CEREP Panlabs (Eurofins)

FGR = molecular target: T3, FGR (Homo sapiens, UniProt P09769); assay: CEREP protein kinase assay; format: biochemical
T3 construct: purchased CEREP Panlabs (Eurofins)

[1] = system: AMPK T172 phosphorylation in MDA-MB-231met2 tumors; assay: Western analysis of tumors; format: in vivo, mouse; conditions: 30 and 60 mg/kg BIDx22 PO
Method: (§1) The levels of total AMPKα and P70S6K are also shown. […] The levels of total AMPKα are also shown. […] Full images and the croppings used in this figure are shown in Supplemental Figures S14–S21.
(§2) Antibodies were purchased as follows: pAMPK Thr172 (Cell Signaling #2535), p-p70S6 Thr389 (Cell Signaling #9205), total p70S6 (Cell Signaling #2708), total AMPKα (Cell Signaling #2793) and Actin (Sigma #A5441). Frozen tumor samples were lysed with 500 µL ice cold lysis buffer plus Halt protease inhibitor (ThermoFisher #78430) using a Power Gen 125 tissue grinder (Fisher Scientific). Western blots were run as described in the supplemental material.
(§3) For the in vivo study with MDA-MB-231met2 (Figure 6A) 40 ug of total protein was resolved on a 10% Tris HCl Criterion XT precast gel (BioRad) at 100 V for 90 minutes. Transfer electrophoresed proteins to a 0.2 µm nitrocellulose membrane using Trans Blot Turbo System (BioRad). Block membranes for 1 hr at RT in 5% skim milk. Probe overnight 4°C for primary antibodies. Blots were washed 3-5 min in 20 mL TBS-0.1% Tween-20. Apply appropriate secondary antibody for 1-3 hours RT. Wash blots 3 x 5 min in 20 mL TBS-0.1% Tween20 and develop signal using Super Signal Western Femto kit (Thermo) on Image Reader LAS-4000 (Fuji Film Life Science).

[2] = system: P70S6K T389 phosphorylation in MDA-MB-231met2 tumors; assay: Western analysis of tumors; format: in vivo, mouse; conditions: 30 and 60 mg/kg BIDx22 PO
Method: as §1, §2, §3

P38a = molecular target: T4, P38a (Homo sapiens, UniProt Q16539); assay: CEREP protein kinase assay; format: biochemical
T4 construct: purchased CEREP Panlabs (Eurofins)

TNK2 = molecular target: T5, TNK2 (Homo sapiens, UniProt Q07912); assay: CEREP protein kinase assay; format: biochemical
T5 construct: purchased CEREP Panlabs (Eurofins)

A9 murine tumors = assay: Pharmacodynamic response of tumor metabolites, single PO dose, standard chow; format: in vivo, mouse
Text: (§4) Figure 4 Pharmacodynamic response of ZMP (purple), AICAR (blue), […] (green), dUMP (red), AMP (aqua) & GMP (orange) metabolites in tumors following a single PO dose of LSN3213128 in athymic nude mice.

[3] = system: MDA-MB-231met2 xenografts; assay: as above; format: in vivo, mouse
Text: as §4

NCI-H460 (lung) = assay: Low folate & high folate in vitro proliferation assay (Alamar Blue); format: cell-based, human; conditions: for GI50: Homo sapiens
Method: Cells lines were acquired from cell banks, see supplemental material, grown using the cell banks recommended culture conditions (Supplemental Table 3). In some experiments noted “low folate” the cells were washed and grown in folate free RPMI-1640 media (Gibco #27016-021) supplemented with 5 ml 1 M Hepes, 5 ml 100 mM Na pyruvate, 2.5 mg/ml glucose and 10% defined FBS (Hyclone #SH30070) per 500 mL media for 5–7 days to deplete intracellular folate levels prior to the start of the experiment. Where noted, cells were maintained in complete “high folate” RPMI-1640 media (ATCC #30-2001) with 10% defined FBS to contrast with the low folate conditions.
Cells were cultured using recommended culture conditions unless noted otherwise (Supplemental Table 3). Cells were plated, dosed with compound and incubated at 37 °C for approximately 2 doubling times as determined for each cell line. Cell Titer Glo (Promega) assay was used to measure proliferation according to manufacturer’s recommendations by measuring luminescence with Flexstation3 (Molecular Devices) with 500 ms integration time. […] The % response was fit to a four-parameter logistic equation using ACTIVITYBASE 4.0 to determine the absolute IC50 values.
For a limited number of cell lines, compound dosing was performed under high or low folate conditions with cell viability being determined with Alamar Blue rather than an ATP dependent assay. Cells were plated and treated as described above. Proliferation was measured using Alamar Blue Cell Viability Reagent (Invitrogen), and read after approximately 1.5–4 hours incubation at 37 °C on the Envision plate reader (Perkin Elmer) with excitation at 570 nm and emission at 585 nm. The % inhibition for each sample was calculated and fit as described above.

PLK3 = molecular target: T6, PLK3 (Homo sapiens, UniProt Q9H4B4); assay: CEREP protein kinase assay; format: biochemical
T6 construct: purchased CEREP Panlabs (Eurofins)

STK33 = molecular target: T7, STK33 (Homo sapiens, UniProt Q9BYT3); assay: CEREP protein kinase assay; format: biochemical
T7 construct: purchased CEREP Panlabs (Eurofins)

ROCK1 = molecular target: T8, ROCK1 (Homo sapiens, UniProt Q13464); assay: CEREP protein kinase assay; format: biochemical
T8 construct: purchased CEREP Panlabs (Eurofins)

[4] = MDA-MB-231met2 tumors, 4 h post treatment

T5 sequence (Q07912 whole entry): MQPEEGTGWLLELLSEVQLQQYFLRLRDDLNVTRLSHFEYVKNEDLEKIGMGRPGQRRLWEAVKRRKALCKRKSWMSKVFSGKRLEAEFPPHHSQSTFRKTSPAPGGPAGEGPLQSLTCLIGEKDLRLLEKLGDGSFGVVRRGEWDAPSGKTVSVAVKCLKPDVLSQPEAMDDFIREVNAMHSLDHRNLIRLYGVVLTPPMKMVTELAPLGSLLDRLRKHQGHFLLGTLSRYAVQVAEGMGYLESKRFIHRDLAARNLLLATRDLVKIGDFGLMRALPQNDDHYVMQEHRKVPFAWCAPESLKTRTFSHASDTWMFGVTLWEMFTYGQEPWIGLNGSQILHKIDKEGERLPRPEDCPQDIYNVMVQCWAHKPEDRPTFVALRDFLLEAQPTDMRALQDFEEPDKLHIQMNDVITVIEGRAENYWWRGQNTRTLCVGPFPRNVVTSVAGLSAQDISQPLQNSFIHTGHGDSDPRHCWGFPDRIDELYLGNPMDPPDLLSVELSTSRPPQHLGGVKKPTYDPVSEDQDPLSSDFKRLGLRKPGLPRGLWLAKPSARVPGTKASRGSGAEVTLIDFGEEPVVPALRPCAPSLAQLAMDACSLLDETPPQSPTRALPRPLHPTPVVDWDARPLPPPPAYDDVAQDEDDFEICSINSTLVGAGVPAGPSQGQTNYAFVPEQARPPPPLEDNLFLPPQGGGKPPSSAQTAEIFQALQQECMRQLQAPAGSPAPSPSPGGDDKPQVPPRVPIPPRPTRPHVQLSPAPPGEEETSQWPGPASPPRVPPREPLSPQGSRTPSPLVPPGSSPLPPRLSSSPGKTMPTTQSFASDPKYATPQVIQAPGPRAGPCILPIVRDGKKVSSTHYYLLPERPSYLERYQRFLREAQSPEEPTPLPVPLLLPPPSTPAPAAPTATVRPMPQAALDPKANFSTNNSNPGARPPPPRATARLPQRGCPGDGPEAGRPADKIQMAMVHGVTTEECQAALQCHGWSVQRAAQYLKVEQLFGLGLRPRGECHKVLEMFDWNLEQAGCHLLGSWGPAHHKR
T4 sequence (Q16539 whole entry): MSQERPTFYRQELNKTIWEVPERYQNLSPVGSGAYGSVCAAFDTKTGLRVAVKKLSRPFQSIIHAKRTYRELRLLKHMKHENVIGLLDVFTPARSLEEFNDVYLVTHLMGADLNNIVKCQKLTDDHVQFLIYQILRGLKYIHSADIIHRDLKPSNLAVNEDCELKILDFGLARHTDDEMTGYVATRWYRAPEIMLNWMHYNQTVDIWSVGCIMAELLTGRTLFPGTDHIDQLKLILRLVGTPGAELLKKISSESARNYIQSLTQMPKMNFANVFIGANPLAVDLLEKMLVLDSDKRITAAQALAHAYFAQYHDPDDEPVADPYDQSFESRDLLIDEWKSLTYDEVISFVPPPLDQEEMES
T7 sequence (Q9BYT3 whole entry): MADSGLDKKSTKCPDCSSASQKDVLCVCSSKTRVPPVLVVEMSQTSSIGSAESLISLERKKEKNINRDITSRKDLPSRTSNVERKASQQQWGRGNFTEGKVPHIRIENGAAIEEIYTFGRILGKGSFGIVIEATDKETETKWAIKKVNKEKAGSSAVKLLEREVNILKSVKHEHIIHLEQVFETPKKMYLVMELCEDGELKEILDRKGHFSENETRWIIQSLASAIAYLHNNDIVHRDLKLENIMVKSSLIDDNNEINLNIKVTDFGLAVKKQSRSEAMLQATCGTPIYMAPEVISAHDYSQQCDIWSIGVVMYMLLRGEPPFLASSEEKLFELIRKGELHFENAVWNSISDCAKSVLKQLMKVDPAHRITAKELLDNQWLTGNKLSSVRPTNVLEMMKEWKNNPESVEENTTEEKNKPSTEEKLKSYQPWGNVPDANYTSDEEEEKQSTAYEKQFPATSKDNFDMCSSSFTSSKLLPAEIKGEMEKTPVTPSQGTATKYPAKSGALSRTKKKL
T3 sequence (P09769 whole entry): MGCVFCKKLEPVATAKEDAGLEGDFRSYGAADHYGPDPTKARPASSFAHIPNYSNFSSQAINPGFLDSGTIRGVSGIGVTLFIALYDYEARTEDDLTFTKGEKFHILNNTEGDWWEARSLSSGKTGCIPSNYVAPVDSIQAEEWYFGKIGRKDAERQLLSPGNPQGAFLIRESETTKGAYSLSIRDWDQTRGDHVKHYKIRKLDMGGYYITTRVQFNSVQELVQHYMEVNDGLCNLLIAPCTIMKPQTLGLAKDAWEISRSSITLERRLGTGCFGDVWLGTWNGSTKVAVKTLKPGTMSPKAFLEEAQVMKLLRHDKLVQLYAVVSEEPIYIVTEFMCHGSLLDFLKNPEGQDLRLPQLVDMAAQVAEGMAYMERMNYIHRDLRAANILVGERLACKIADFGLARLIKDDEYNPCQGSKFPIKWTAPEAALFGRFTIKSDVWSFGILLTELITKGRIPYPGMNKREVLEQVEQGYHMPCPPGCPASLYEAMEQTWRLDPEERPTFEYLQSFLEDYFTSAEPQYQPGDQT
T2 sequence (P06213 28-1382): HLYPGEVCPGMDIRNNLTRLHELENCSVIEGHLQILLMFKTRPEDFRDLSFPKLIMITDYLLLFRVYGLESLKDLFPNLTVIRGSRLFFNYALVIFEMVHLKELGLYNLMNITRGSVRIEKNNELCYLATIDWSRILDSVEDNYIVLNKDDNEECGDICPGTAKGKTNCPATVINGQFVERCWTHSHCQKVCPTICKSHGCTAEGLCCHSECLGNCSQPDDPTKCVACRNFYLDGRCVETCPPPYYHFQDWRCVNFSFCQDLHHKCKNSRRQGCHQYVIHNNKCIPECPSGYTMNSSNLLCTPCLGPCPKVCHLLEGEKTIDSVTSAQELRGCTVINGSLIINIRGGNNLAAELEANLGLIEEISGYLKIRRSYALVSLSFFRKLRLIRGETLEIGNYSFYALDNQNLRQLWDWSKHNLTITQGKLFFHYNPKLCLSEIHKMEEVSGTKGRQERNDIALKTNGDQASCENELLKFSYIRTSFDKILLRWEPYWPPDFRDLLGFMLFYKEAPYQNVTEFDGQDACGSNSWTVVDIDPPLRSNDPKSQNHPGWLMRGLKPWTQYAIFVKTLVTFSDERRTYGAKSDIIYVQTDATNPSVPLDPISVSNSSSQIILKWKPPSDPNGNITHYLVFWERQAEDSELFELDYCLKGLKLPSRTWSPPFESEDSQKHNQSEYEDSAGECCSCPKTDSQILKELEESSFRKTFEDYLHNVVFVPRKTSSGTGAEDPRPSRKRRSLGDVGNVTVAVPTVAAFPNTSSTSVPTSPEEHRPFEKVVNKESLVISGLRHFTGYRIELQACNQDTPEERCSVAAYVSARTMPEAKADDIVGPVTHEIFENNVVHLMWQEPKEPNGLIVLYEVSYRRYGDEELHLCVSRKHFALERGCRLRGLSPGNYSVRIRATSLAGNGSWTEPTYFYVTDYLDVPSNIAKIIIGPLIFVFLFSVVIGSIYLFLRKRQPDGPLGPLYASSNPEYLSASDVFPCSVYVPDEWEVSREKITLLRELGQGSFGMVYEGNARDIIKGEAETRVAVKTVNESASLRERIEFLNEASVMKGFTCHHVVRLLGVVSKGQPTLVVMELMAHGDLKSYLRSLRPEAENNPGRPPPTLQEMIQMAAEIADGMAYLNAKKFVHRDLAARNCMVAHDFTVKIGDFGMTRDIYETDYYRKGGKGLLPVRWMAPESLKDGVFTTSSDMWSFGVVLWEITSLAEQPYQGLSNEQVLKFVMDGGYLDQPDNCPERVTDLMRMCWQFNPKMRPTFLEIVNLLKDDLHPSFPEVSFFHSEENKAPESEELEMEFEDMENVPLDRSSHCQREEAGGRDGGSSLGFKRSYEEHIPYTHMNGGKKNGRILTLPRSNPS
T6 sequence (Q9H4B4 whole entry): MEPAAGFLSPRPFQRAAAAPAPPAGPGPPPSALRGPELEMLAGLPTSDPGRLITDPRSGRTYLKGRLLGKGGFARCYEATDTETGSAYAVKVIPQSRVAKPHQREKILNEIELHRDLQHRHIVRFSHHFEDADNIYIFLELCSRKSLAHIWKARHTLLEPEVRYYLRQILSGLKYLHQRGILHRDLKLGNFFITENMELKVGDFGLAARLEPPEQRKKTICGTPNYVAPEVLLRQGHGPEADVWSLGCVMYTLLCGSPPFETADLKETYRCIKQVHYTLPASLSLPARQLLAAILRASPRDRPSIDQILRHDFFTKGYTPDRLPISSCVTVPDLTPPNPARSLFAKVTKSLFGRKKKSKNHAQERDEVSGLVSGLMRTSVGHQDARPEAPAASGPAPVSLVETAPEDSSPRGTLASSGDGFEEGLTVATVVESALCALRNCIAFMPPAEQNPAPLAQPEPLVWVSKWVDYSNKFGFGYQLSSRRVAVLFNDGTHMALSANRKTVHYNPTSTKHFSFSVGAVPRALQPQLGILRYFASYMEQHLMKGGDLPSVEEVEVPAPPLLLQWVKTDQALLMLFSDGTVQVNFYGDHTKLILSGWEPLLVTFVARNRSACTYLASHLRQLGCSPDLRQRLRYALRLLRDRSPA

Structure (SMILES): O=c1[nH]ccc2cc(F)c(NS(=O)(=O)c3ccc(N4CC[C@@H](O)C4)s3)cc12 [LSN3213128, N-(6-Fluoro-1-oxo-1,2-dihydroisoquinolin-7-yl)-5-[(3R)-3-hydroxypyrrolidin-1-yl]thiophene-2-sulfonamide]
- inhibition at 0.2 µM (ALK4; @ 0.2 uM): -10.5%
- inhibition at 2 µM (ALK4; @ 2 uM): 10.4%
- inhibition at 20 µM (ALK4; @ 20 uM): 55%
- inhibition at 0.2 µM (IRK; @ 0.2 uM): -0.8%
- inhibition at 2 µM (IRK; @ 2 uM): 10.6%
- inhibition at 20 µM (IRK; @ 20 uM): 12.9%
- inhibition at 0.2 µM (FGR; @ 0.2 uM): -8.47%
- inhibition at 2 µM (FGR; @ 2 uM): 3.62%
- inhibition at 20 µM (FGR; @ 20 uM): 42.3%
- AMPK T172 phosphorylation levels in vivo [1]: remained elevated
- P70S6K T389 phosphorylation [2]: showed no change
- inhibition at 0.2 µM (P38a; @ 0.2 uM): -2.24%
- inhibition at 2 µM (P38a; @ 2 uM): -2.52%
- inhibition at 20 µM (P38a; @ 20 uM): 32.3%
- inhibition at 0.2 µM (TNK2; @ 0.2 uM): -2.49%
- inhibition at 2 µM (TNK2; @ 2 uM): 16.4%
- inhibition at 20 µM (TNK2; @ 20 uM): 52.5%
- dose after which tumor ZMP response appeared to saturate (A9 murine tumors; nude mice on standard chow, 4 h post PO dose): 30 mg/kg
- tumor dUMP levels (A9 murine tumors; standard chow, 4 h, up to 100 mg/kg): did not rise
- change in tumor ZMP [3, 4]: 15 fold
- change in tumor purine levels (AMP and GMP) [3, 4]: twofold
- dose at which tumor ZMP response appeared to saturate ([3]; MDA-MB-231met2 xenografts, nude mice on standard chow, 4 h post PO dose): 10 mg/kg
- tumor dUMP levels ([3]; MDA-MB-231met2 xenografts, standard chow, 4 h, up to 100 mg/kg): did not rise
- anti-proliferative effects on hypoxanthine supplementation (NCI-H460 (lung); 32 μM hypoxanthine): completely rescued
- GI50 (NCI-H460 (lung); RPMI media, read-out: Alamar Blue GI50 Regular folate): 3470 ± 2090 nM
- GI50 (NCI-H460 (lung); low folate RPMI media, read-out: Alamar Blue GI50 Low folate): 16.4 ± 5.1 nM
- inhibition at 0.2 µM (PLK3; @ 0.2 uM): 13.4%
- inhibition at 2 µM (PLK3; @ 2 uM): 12%
- inhibition at 20 µM (PLK3; @ 20 uM): 60.5%
- inhibition at 0.2 µM (STK33; @ 0.2 uM): -5.61%
- inhibition at 2 µM (STK33; @ 2 uM): 15.3%
- inhibition at 20 µM (STK33; @ 20 uM): -1.42%
- inhibition at 0.2 µM (ROCK1; @ 0.2 uM): 7.67%
- inhibition at 2 µM (ROCK1; @ 2 uM): 10.9%
- inhibition at 20 µM (ROCK1; @ 20 uM): 21.3%
